# Assay results from paper PMC11882969 (Nature Communications, 2025).
# Values joined by “and” are separate entries in the source; they are usually repeats but may differ in a detail not shown here. Equal entries are not always repeated.
# How the values were obtained:
# hCB1 [1] = target: T1, hCB1 (Homo sapiens, UniProt P21554); assay: bioSensAll ebBRET signaling profiling, hCB1; type: cell-based; design: host or cells: HEK293SL cells, transient PEI transfection; conditions: for EC50: read-out: EC50 [95% CI]; for Emax: normalized to CP-55,940
# T1 sequence (P21554 whole entry): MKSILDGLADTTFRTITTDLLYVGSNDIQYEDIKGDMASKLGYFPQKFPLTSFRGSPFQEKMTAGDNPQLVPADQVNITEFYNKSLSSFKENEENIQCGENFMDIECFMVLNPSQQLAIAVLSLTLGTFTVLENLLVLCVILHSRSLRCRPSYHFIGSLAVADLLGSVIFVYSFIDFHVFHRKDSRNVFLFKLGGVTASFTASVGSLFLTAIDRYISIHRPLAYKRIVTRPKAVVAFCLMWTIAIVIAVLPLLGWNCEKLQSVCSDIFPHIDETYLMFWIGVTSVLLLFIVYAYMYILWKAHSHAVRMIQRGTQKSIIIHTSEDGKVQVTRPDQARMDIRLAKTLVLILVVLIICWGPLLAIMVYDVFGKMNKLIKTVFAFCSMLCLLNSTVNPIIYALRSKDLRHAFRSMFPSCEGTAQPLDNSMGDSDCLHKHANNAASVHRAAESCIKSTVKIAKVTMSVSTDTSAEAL
# CB1 (rCB1) = CB1 (rCB1) (Rattus norvegicus, UniProt P20272); assay: Radioligand competition binding, [3H]-CP-55,940, rat brain membranes
# Sequence of CB1 (rCB1) (P20272 whole entry): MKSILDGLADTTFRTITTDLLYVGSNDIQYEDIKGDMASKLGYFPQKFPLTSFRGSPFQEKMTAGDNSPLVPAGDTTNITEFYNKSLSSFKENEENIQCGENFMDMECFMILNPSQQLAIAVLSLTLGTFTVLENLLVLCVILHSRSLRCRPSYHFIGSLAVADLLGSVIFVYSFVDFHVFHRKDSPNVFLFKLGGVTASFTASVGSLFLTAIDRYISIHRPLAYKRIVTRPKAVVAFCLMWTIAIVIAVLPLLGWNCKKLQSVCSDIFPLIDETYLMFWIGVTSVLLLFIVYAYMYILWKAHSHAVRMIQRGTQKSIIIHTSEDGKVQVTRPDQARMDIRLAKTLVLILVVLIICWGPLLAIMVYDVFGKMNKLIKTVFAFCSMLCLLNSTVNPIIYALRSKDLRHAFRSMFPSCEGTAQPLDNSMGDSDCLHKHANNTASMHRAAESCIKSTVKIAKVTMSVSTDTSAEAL
# hCB1 [2] = target: T1, hCB1; assay: Tango β-arrestin-2 recruitment, HTLA cells, CB1R; type: cell-based; design: expressed in transfected cells; host or cells: HTLA cells (gift of R. Axel), transient transfection
# hCB2 = hCB2 (Homo sapiens, UniProt P34972); assay: TRUPATH BRET2 GoA dissociation, HEK293T; type: cell-based; design: expressed in transfected cells; host or cells: HEK293T cells (ATCC: CRL-3216), transient co-transfection; conditions: for functional response, concentration-response point (FigS7e, normalized): Log[drug], replicate columns
# Sequence of hCB2 (P34972 whole entry): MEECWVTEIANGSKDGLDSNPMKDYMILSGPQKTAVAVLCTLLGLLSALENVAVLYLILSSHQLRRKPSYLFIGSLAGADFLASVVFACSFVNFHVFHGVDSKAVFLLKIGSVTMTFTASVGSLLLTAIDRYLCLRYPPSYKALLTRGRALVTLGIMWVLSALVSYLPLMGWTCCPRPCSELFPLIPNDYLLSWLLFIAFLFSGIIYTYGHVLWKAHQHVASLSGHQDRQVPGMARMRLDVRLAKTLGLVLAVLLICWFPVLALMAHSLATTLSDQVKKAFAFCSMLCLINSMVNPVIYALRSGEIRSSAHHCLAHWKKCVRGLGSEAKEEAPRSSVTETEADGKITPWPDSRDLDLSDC
smiles,measurement,setting,value
COC(=O)C(C)(NC(=O)c1cc(C)n(-c2cccc(C(F)(F)F)c2)n1)c1cccs1 (centres unmarked) [‘4042],EC50,hCB1 [1]; hCB1 G13,2.1 nM
same,EC50,hCB1 [1]; hCB1 G15,0.37 nM
same,EC50,hCB1 [1]; hCB1 GoB,0.64 nM
same,EC50,hCB1 [1]; hCB1 Gz,0.43 nM
same,Emax,"hCB1 [1]; read-out: Emax [95% CI], hCB1 Barr2 + GRK2",72%
same,Emax,"hCB1 [1]; read-out: Emax [95% CI], hCB1 G13",64%
same,Emax,"hCB1 [1]; read-out: Emax [95% CI], hCB1 G15",105%
same,Emax,"hCB1 [1]; read-out: Emax [95% CI], hCB1 Gi2",101%
same,Emax,"hCB1 [1]; read-out: Emax [95% CI], hCB1 GoB",103%
same,Emax,"hCB1 [1]; read-out: Emax [95% CI], hCB1 Gz",97%
same,pKi [95% CI],CB1 (rCB1); rCB1,8.7 [8.6 – 8.9]
same,Ki,"CB1 (rCB1); read-out: Ki [95% CI], rCB1, [3H]-CP-55,940",1.9 nM and 1.86 nM
same,Emax,"hCB1 [2]; HTLA, hCB1, read-out: Tango ß-arrestin recruitment Emax",102%
same,"response, replicate values of concentration-response curve (FigS7f)","hCB1 [2]; Log[drug], M = -4.52",7.067 and -6.331 and 5.4951 and 8.221 and 8.314 and -13.0772 and 26.9747 and 17.871 and 12.4553 and 121.329 and 105.672 and 117.884
same,"response, replicate values of concentration-response curve (FigS7f)","hCB1 [2]; Log[drug], M = -5",-3.086 and 3.974 and -30.8966 and 0.657 and 12.6131 and 6.151 and 33.0168 and 23.9031 and -6.308 and 64.2077 and 47.075 and 77.367
same,"response at Log[drug], M -5 (FigS4e)","hCB1 [2]; Log[drug], M = -5, individual replicates",105.219 and 109.279 and 117.533 and 125.309 and 97.6126 and 107.099 and 99.9992 and 108.6 and 92.9311 and 106.141 and 96.6922 and 121.582
same,"response, replicate values of concentration-response curve (FigS7f)","hCB1 [2]; Log[drug], M = -5.52",-43.7244 and -3.669 and 10.2865 and 56.4831 and 26.3341 and 31.5757 and 34.4515 and 25.7521 and 21.276 and 49.6996 and 52.3788 and 22.9617
same,"response at Log[drug], M -5.52 (FigS4e)","hCB1 [2]; Log[drug], M = -5.52, individual replicates",101.394 and 114.732 and 120.488 and 108.55 and 90.8381 and 89.995 and 132.472 and 109.506 and 88.5962 and 99.4965 and 84.8551 and 98.2296
same,"response, replicate values of concentration-response curve (FigS7f)","hCB1 [2]; Log[drug], M = -6",45.905 and 18.3989 and 8.994 and 37.6798 and 48.3885 and 1.626 and 39.9683 and 51.123 and 11.4551 and 62.3486 and 38.1624 and 52.7798
same,"response at Log[drug], M -6 (FigS4e)","hCB1 [2]; Log[drug], M = -6, individual replicates",110.2 and 110.608 and 113.923 and 102.851 and 70.7652 and 82.3944 and 91.1468 and 90.7286 and 85.6996 and 85.6798 and 84.3272 and 95.3395
same,"response, replicate values of concentration-response curve (FigS7f)","hCB1 [2]; Log[drug], M = -6.52",48.7063 and 31.7717 and 10.7428 and 2.793 and 31.788 and 27.608 and 19.4978 and 35.1184 and 41.787 and 72.0632 and 23.3444 and 56.7531
same,"response at Log[drug], M -6.52 (FigS4e)","hCB1 [2]; Log[drug], M = -6.52, individual replicates",101.401 and 93.7884 and 111.126 and 102.386 and 76.6593 and 76.4337 and 80.9673 and 77.6716 and 90.47 and 82.2224 and 76.8121 and 78.3428
same,"response, replicate values of concentration-response curve (FigS7f)","hCB1 [2]; Log[drug], M = -7",45.8923 and 39.1109 and -32.4811 and 3.271 and 1.931 and -6.456 and 21.6196 and 13.8396 and 19.3159 and 108.005 and 18.4598 and 4.043
same,"response at Log[drug], M -7 (FigS4e)","hCB1 [2]; Log[drug], M = -7, individual replicates",101.996 and 90.2881 and 92.9617 and 98.4638 and 67.7319 and 66.2817 and 76.3076 and 71.3692 and 69.3631 and 70.7817 and 73.5528 and 86.8411
same,"response, replicate values of concentration-response curve (FigS7f)","hCB1 [2]; Log[drug], M = -7.52",6.205 and 16.8525 and 13.7723 and 78.1261 and 25.2327 and 15.4263 and 3.028 and 19.2351 and -2.458 and 66.2308 and 22.6883 and 80.2832
same,"response at Log[drug], M -7.52 (FigS4e)","hCB1 [2]; Log[drug], M = -7.52, individual replicates",85.8169 and 81.0399 and 77.0438 and 77.8353 and 74.3661 and 62.598 and 69.4576 and 65.014 and 61.4855 and 54.8485 and 65.2396 and 54.8221
same,"response at Log[drug], M -8 (FigS4e)","hCB1 [2]; Log[drug], M = -8, individual replicates",64.9332 and 70.1108 and 76.4142 and 63.9273 and 43.1923 and 49.5865 and 49.0423 and 55.5064 and 60.3508 and 56.2009 and 53.2123 and 59.8164
same,"response at Log[drug], M -8.52 (FigS4e)","hCB1 [2]; Log[drug], M = -8.52, individual replicates",34.3417 and 29.1931 and 35.2401 and 27.4328 and 27.4461 and 34.6615 and 20.0846 and 24.5419 and 29.6463 and 23.9316 and 26.0874 and 20.4241
same,"response at Log[drug], M -9 (FigS4e)","hCB1 [2]; Log[drug], M = -9, individual replicates",11.2308 and 14.9426 and 16.0188 and 14.8879 and 7.81 and 6.201 and 6.046 and 5.165 and 11.416 and 8.011 and 9.8505 and 11.4417
same,"response, replicate values of concentration-response curve (FigS7f)","hCB1 [2]; Log[drug], M = -9.52",-8.017 and 13.4427 and 7.219 and 1.3736
same,"response at Log[drug], M -9.52 (FigS4e)","hCB1 [2]; Log[drug], M = -9.52, individual replicates",4.318 and 6.954 and 4.569 and 9.019 and 2.48 and 0.9701 and 1.146 and -0.2947 and 2.2712 and 3.563 and 2.22 and 2.613
same,"response, replicate values of concentration-response curve (FigS7f)","hCB1 [2]; Log[drug], M = -10",-5.634 and 19.8566 and -6.166 and -19.951 and 12.6927 and 1.918 and 26.5806 and 27.9648 and -15.2597 and 16.5278 and -42.7439 and -28.9284
same,"response at Log[drug], M -10 (FigS4e)","hCB1 [2]; Log[drug], M = -10, individual replicates",4.678 and 4.596 and 5.116 and 5.805 and 0.4668 and 1.099 and -0.9271 and 0.03226 and 4.179 and 1.0137 and 3.024 and 3.033
same,"response at Log[drug], M -10.52 (FigS4e)","hCB1 [2]; Log[drug], M = -10.52, individual replicates",3.333 and 5.039 and 5.463 and 7.136 and 2.136 and 1.073 and 1.405 and 1.689 and 0.06416 and 3.135 and 1.262 and 0.6116
same,"response at Log[drug], M -11 (FigS4e)","hCB1 [2]; Log[drug], M = -11, individual replicates",2.02 and 1.728 and 3.648 and 1.714 and 2.136 and 0.5313 and 2.282 and 1.392 and 2.442 and 2.186 and 2.656 and 2.784
same,"response at Log[drug], M -11.52 (FigS4e)","hCB1 [2]; Log[drug], M = -11.52, individual replicates",0.1596 and 0.8162 and 2.015 and 2.59 and 0.7808 and -0.157 and 2.17 and 1.37 and 0.3122 and 1.493 and -1.27 and 0.3892
same,"response at Log[drug], M -12 (FigS4e)","hCB1 [2]; Log[drug], M = -12, individual replicates",-1.281 and 1.1992 and 0.1003 and -0.01824 and -0.4194 and -1.323 and 0.4797 and 1.263 and -0.586 and -0.201 and 1.578 and -0.7913
same,Tango ß-arrestin recruitment pEC50,hCB1 [2]; hCB1,8.0 [7.9 – 8.1]
same,EC50,"hCB1 [2]; hCB1, read-out: Tango ß-arrestin recruitment EC50",10.7 nM
same,BRET2 + GoA pEC50,hCB2,8.1 [7.4 – 8.8]
same,Emax,hCB2; HEK-293T,29%
same,"functional response, concentration-response point (FigS7e, normalized)",hCB2; M = -5.52,35.163 and 34.5195 and 37.1398 and 45.2359 and 22.1885 and 20.0253 and 22.0647 and 22.44 and 27.1274 and 29.7176 and 29.0627 and 31.2724
same,"functional response, concentration-response point (FigS7e, normalized)",hCB2; M = -6,29.7877 and 33.9492 and 29.5334 and 25.2255 and 15.8228 and 16.2963 and 15.9211 and 20.153 and 25.0506 and 24.2718 and 28.0892 and 24.4694
same,"functional response, concentration-response point (FigS7e, normalized)",hCB2; M = -6.52,26.0116 and 28.0846 and 25.607 and 31.5062 and 14.9093 and 14.0547 and 17.0527 and 13.1077 and 21.8115 and 21.8852 and 20.2922 and 24.9916
same,"functional response, concentration-response point (FigS7e, normalized)",hCB2; M = -7,24.1274 and 22.8405 and 29.7761 and 21.8695 and 14.0743 and 11.9997 and 13.5282 and 12.4358 and 19.7258 and 19.481 and 19.1064 and 19.4486
same,"functional response, concentration-response point (FigS7e, normalized)",hCB2; M = -7.52,23.5957 and 22.9137 and 20.3707 and 18.5906 and 11.4339 and 9.937 and 10.3691 and 10.8406 and 16.0355 and 14.8408 and 13.0297 and 14.2214
same,"functional response, concentration-response point (FigS7e, normalized)",hCB2; M = -8,12.8343 and 12.3797 and 11.0928 and 9.008 and 8.006 and 4.9629 and 4.745 and 4.187 and 11.3719 and 9.991 and 9.086 and 7.272
same,"functional response, concentration-response point (FigS7e, normalized)",hCB2; M = -8.52,3.796 and 2.717 and 4.595 and 4.6603 and 1.822 and 2.459 and 1.412 and 2.158 and 3.296 and 4.616 and 3.0209 and 3.939
same,"functional response, concentration-response point (FigS7e, normalized)",hCB2; M = -11.52,-0.1711 and -0.00125 and 0.5633 and 1.428
same,"functional response, concentration-response point (FigS7e, normalized)",hCB2; M = -12,0.1237 and -0.6757 and -0.301 and 0.8531 and -0.1904 and 0.4719 and -0.17 and -0.1114 and 0.2132 and -0.01243 and 0.1138 and -0.3146
